Measured values: patent US9017936B2, “Assays for agents affecting megakaryocyte development” (Shire Human Genetic Therapies, Inc., priority 2009, dated 2015)

Tests used:
TRB-3 mRNA expression = assay: TRB-3 expression assay (quantitative RT-PCR) in megakaryocyte cultures of expanded CD34+ cells; type: cell-based, human
Protocol: CD34+ cells were thawed, washed by centrifugation (300 g for 10 min at room temperature) in Stemspan™ medium (Stem Cell Technologies, London, UK) and then seeded in 48-well Falcon plates at a density of 1.5×10^5 cells/ml in the above culture medium supplemented with 100 U/ml penincillin, 0.1 mg/ml streptomycin, 0.25 μg/ml amphothericin B, 2% human umbilical cord blood plasma, 40 ng/ml TPO (Insight, UK), 50 ng/ml SCF, 100 ng/ml Flt3 ligand, and 10 ng/ml IL-3 (all from R&D Systems, Abingdon, UK). Cells were grown four days at 37° C. in a humidified incubator under 5% CO2/95% air.
The expanded cells were washed free of cytokines by centrifugation as above and re-suspended to 1.5×10^5 cells/ml by addition of fresh Stemspan™ culture medium containing 2% human umbilical cord plasma and 40 ng/ml TPO. Cells were then grown in 48-well Falcon plates at 37° C. in a humidified incubator under 5% CO2/95% air in the presence of either anagrelide, another test agent or an equivalent amount of vehicle (between 0.01% to 0.05% DMSO). At various time points the cells were harvested and processed for RNA extraction or for determination of CD61 antigen expression and total cell counting.
Cellular RNA was extracted with RNeasy reagent (Qiagen) according to the manufacturer's instructions and cDNA was prepared from 0.1-0.5 μg total RNA template using random hexamer primers and a High Capacity Reverse Transcription kit or a High Capacity RNA-to-cDNA Master Mix (Applied Biosystems). cDNA aliquots were either used immediately or stored at −20° C. for PCR analysis at a later stage. cDNA aliquots (equivalent to 5-10 ng of input RNA) were then analysed in duplicates by real-time PCR using gene-specific TaqMan probes on an ABI Prism 7500 Sequence Detection System (Applied Biosystems). Probes for TRB-3 (Hs00221754_m1), GpIIb (Hs00166246_m1), GUSB (Hs99999908_m1) and TBP (Hs99999910_m1) were commercially available from the Assay on Demand gene expression collection (Applied Biosystems). Thermal conditions were the following: 20 seconds at 95° C. followed by 40 cycles of 3 seconds at 94° C. and 30 seconds at 60° C. Reactions without cDNA were included as controls. Relative mRNA expression levels were calculated using the comparative cycle threshold (CT) method (Livak and Schmittgen, 2001) using the CT values obtained for β-glucuronidase (GUSB) or TATA Box binding protein (TBP) as internal references. For each target gene to be quantified, validation experiments were performed to determine that the efficiency of amplification of target and reference gene was approximately equal. When analysing dose responses EC50 values were calculated with Prism software (Version 4, GraphPad Software Inc, CA, USA).
In order to ascertain the sensitivity of the described method, dose-response curves were constructed based on the effect of anagrelide on TRB-3 mRNA expression using different numbers of cells. Cells were cultured for 4 days under standard MK culture conditions in the presence of increasing concentrations of anagrelide. RNA was extracted from the cells, and TRB-3 mRNA expression was determined by quantitative RT-PCR using β-glucuronidase as an endogenous reference. Results shown in FIG. 3 were expressed relative to the TRB-3 mRNA level detected in cells treated with vehicle alone. EC50 values were calculated using a sigmoidal dose response (variable slope) curve-fit model. Values in brackets represent the 95% CI. Error bars (SD) smaller than the size of the symbol are not shown.
Expanded CD34+ cells (see Materials and Methods Section of Example 1) were pre-incubated for various lengths of time under standard megakaryocyte culture conditions in the absence of the test agent and then treated with the test agent or an equivalent amount of vehicle for 24 hours prior to harvesting. TRB-3 mRNA expression was determined as described in the Materials and Methods Section of Example 1.

[1] = system: megakaryocytic cells from primary hematopoietic progenitor cells; assay: Megakaryocyte growth in expanded CD34+ cells transduced with shControl or shTRB3; type: cell-based, human; conditions: for MK cell number: cultured one week with anagrelide; for Inhibition of megakaryocyte growth: vs DMSO
Source text: UT7/mpl cells (clone 5.1) (Goncalves et al., Leukemia 12:1355-1366 (1998)) or human umbilical cord blood CD34+ hematopoietic cells were infected with pLKO.1-puro lentiviral vectors carrying short hairpin (sh) RNA sequences against human TRB-3 (designated shTRB3.1 to shTRB3.5) or a non-targeting scramble shRNA (designated shControl). shRNA clones were purchased from Sigma.
Expanded CD34+ cells (see Materials and Methods Section of Example 1) were infected as described above and then were sub-cultured under standard megakaryocyte culture conditions with anagrelide or an equivalent amount of vehicle for 2 days prior to addition of 1 μg/ml puromycin and further differentiation for 5 days.
CD61 expression of live cells was analysed by flow cytometry following double staining with 7-amino actinomycin D and the FITC-conjugated monoclonal antibody Y2/51 (Dako cytomation) or an isotype-matched control antibody; the latter was used to set a boundary between positive and negative cells.
Table 1 illustrates the effect of TRB-3 silencing on the ability of anagrelide-to inhibit megakaryocyte growth in cultures of primary hematopoietic progenitor cells. Expanded CD34+ cells were infected overnight with shControl or with a mixture of shTRB3.4 and shTRB3.5. Cells were then cultured for one week in the presence of anagrelide or an equivalent amount of vehicle under standard megakaryocyte culture conditions, except that 1 ug/ml puromycin was added after 2 days. The number of megakaryocytic cells was determined by cell counting of viable cells and flow cytometry.

[2] = system: phosphodiesterase type III; conditions: cited from earlier work
[3] = shTRB3 (shTRB3.4 + shTRB3.5)-transduced cells

| Compound | TRB-3 mRNA response to 24 h exposure (TRB-3 mRNA expression; 1 μM, 24 h exposure following the refractory phase (after initial 2-3 days)) | TRB-3 mRNA response to 24 h exposure (TRB-3 mRNA expression; 1 μM, exposure confined to the initial 2-3 days of culture) | TRB-3 expression, 24 h treatment after three days of culture vs continuous four day exposure (TRB-3 mRNA expression; 1 μM, last 24 h vs continuous) | extent of TRB-3 expression response (fold increase vs vehicle) (TRB-3 mRNA expression; 4 days, RNA extracted from 25,000 cells) [fold] | extent of TRB-3 expression response (fold increase vs vehicle) (TRB-3 mRNA expression; 4 days, RNA extracted from 200,000 cells) [fold] | EC50 (TRB-3 mRNA expression; Homo sapiens, 96 h, 4 days, standard MK culture, RNA extracted from 200,000 cells, 95% CI 9 to 27 nM, read-out: EC50 for increase in TRB-3 mRNA expression) [nM] | MK cell number ([1]; shControl-transduced cells) | Inhibition of megakaryocyte growth ([1]; shControl-transduced cells) [%] | MK cell number [1, 3] | Inhibition of megakaryocyte growth [1, 3] [%] | inhibition of phosphodiesterase type III [2] | effect on TRB-3 expression (TRB-3 mRNA expression) |
| --- | --- | --- | --- | --- | --- | --- | --- | --- | --- | --- | --- | --- |
| O=C1CN2Cc3c(ccc(Cl)c3Cl)N=C2N1 [Anagrelide, 6,7-dichloro-1,5-dihydroimidazo (2,1-b)quinazolin-2(3H)-one] | sharp increase in TRB-3 expression | relatively weak | higher level of TRB-3 expression than if the drug was present for the entire four day period of culture | 1.8 | 3 | 15 | 106 ×10^3 | 49.3 | 202 ×10^3 | 21.5 | potent inhibitor | – |
| TPO: thrombopoietin, the primary signal for megakaryocyte production | – | – | – | – | – | – | – | – | – | – | – | reduces TRB-3 expression |
